A word on the IC50: it is the midpoint of a concentration-inhibition curve. As a reminder, the ΔTm is the shift of the melting midpoint relative to a reference.

The target of one experiment is T1, Brd2(BD1) (Homo sapiens, UniProt P25440).
T1 construct: GST tagged bromodomain proteins were purchased from BPS Bioscience; purchased BPS Bioscience
Kind of experiment: HTRF BET selectivity profile, Brd2(BD1). Format: binding. For orientation: In TR-FRET formats the signal depends on donor and acceptor labels being close together.

For a further experiment, the target named is T2, Brdt(BD1) (Homo sapiens, UniProt Q58F21).
T2 construct: GST tagged bromodomain proteins were purchased from BPS Bioscience; purchased BPS Bioscience
Kind of experiment: HTRF BET selectivity profile, Brdt(BD1). Format: binding. Put shortly: (§1)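 HTRF peptide-displacement assay with GST-tagged bromodomains and histone peptide, 0.5% final DMSO, incubated 3 h, 6 h or overnight at room temperature or 4 °C depending on bromodomain. 665/620 nm ratio read; inhibition scaled between DMSO and no-peptide controls, IC50 in triplicate.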

In another experiment the target is T3, Brd4(BD2) (Homo sapiens, UniProt O60885).
T3 construct: GST tagged bromodomain proteins were purchased from BPS Bioscience; purchased BPS Bioscience
Kind of experiment: HTRF BET selectivity profile, Brd4(BD2). Format: binding. In a few lines:
as §1

A further experiment has as its target T4, Brd2(BD2) (Homo sapiens, UniProt P25440).
T4 construct: GST tagged bromodomain proteins were purchased from BPS Bioscience; purchased BPS Bioscience
Kind of experiment: HTRF BET selectivity profile, Brd2(BD2). To be noted: read-out: Brd2(BD2) IC50. Format: binding.

Another experiment relates to Jurkat cells. Kind of experiment: Cell Titer-Glo cell viability assay, Jurkat. To be noted: Homo sapiens, 72 h, mean of three experiments, NA = IC50 > maximal concentration used. Format: cell-based. In a few lines:
(§2)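 Jurkat was grown in RPMI-1640 and Molm14 in MEMα, both with 10% FBS. Viability was read by CellTiter-Glo luminescence, and EC50 was obtained by non-linear regression of dose-response curves.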
Background: Cellular ATP, detected with luciferase, serves as a proxy for viable cell number.

The subject of another experiment is Molm14 cells. Kind of experiment: Cell Titer-Glo cell viability assay, Molm14. The settings on record: Homo sapiens, MOLM-14, 72 h, mean of three experiments, NA = IC50 > maximal concentration used. Format: cell-based. Put shortly: as §2
A further experiment has as its target BRD4(BD1) (Homo sapiens, UniProt O60885). Kind of experiment: Thermal shift assay (BromoMELT), Brd4 (BD1). Format: binding. To be noted: compound at 25 μM, cut-off +/−3.5° C. On the procedure: (§3) FIG. 3. Thermal Shift Assay (TSA) of 43c. The evaluation was performed on 61 bromodomains. A cut-off at +/−3.5° C. was set.
(§4) TSA “Bromoscan” assays (Reaction Biology) were performed in 384 well RT-PCR plate (BioRad) with a total working volume of 15 μL. The “BromoMelT™, containing the 61 GST- or His-tagged-bromodomains, SYPRO® Orange and a mix compounds as control, was purchased from Reaction Biology. For each point, 3 μL of protein (1×) and 12 μL master mix (buffer+SYPRO® Orange+compound at 25 μM or control mix compounds or DMSO (0.5%)) were mixed in plate. The plate was placed in a CFX384 RTQPC (BioRad), and heated 10 seconds at 25° C., then the temperature was increased from 25° C. to 90° C., by increment of 0.5° C. every 30 seconds. The fluorescence was recorded using FRET filters.

In experiment [1] the test system is c-Myc. Kind of experiment: c-Myc HTRF, Jurkat cell line. Format: cell-based, human. On the procedure: (§5) For additional evaluation of the effect of 43c in cell assays, an influence of the molecule on c-Myc expression was determined by c-Myc HTRF. c-Myc is a proto-oncogene that is often overexpressed in cancer. This leads to the increased expression of many genes, involved in cell proliferation, contributing to cancer development. Downregulation of c-Myc is considered as a promising approach for anticancer treatment.

Experiment [2] has as its system c-Myc. Kind of experiment: c-Myc HTRF, CEM cell line. Format: cell-based. On the procedure:
as §5

In another experiment the target is Brd3(BD1) (Homo sapiens, UniProt Q15059). Kind of experiment: Thermal shift assay (BromoMELT), Brd3 (BD1). Format: binding. More on the design: containing the 61 GST- or His-tagged-bromodomains; purchased Reaction Biology. To be noted: compound at 25 μM, cut-off +/−3.5° C. The protocol:
as §3, §4

T1 sequence (P25440 74-180 limits assumed): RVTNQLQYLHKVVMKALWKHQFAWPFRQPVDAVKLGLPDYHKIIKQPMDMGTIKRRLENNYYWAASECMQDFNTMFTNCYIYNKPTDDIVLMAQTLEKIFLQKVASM
Chain of Brd3(BD1) (Q15059 34-140 limits assumed): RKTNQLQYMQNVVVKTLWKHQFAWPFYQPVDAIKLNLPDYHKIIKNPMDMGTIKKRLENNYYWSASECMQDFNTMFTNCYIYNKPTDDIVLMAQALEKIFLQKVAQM
T4 sequence (P25440 344-453 limits assumed): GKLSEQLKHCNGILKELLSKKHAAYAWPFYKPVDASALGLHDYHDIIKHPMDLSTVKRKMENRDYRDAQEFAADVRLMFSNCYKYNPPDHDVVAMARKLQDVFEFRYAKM

On to `CCn1cnc2c1c(=O)[nH]c(=O)n2Cc1ccc(CNS(=O)(=O)c2ccc(OC3CCOCC3)c(F)c2)cc1` [Compound 43c], for which the IC50 on Brd2(BD1) (read-out: Brd2(BD1) IC50) stood at 183 nM; at Brdt(BD1), 352 nM; against Brd4(BD2), 2310 nM; on Brd2(BD2), 1220 nM; in the experiment on Jurkat cells, 17600 nM; in the experiment with Molm14 cells, 6100 nM. In addition, at Brd2(BD1) (selectivity Brd2(BD1) vs Brd2(BD2), HTRF IC50), the “Ratio 2-1 vs 2-2” value worked out at 7. Moreover, the ΔTm at 25 µM is 5.25 °C on BRD4(BD1) and 4.5 °C on Brd3(BD1). In the experiment with c-Myc [1], the “concentration at which c-Myc is downregulated, Jurkat” value worked out at 2.4 µM. Besides, in the experiment with c-Myc [2], the “concentration at which c-Myc is downregulated, CEM” value turned out to be 2.6 µM.

The values are drawn from US11180510B2, “Xanthine derivatives and uses thereof as inhibitors of bromodomains of BET proteins” (Centre national de la recherche scientifique, priority 2017, dated 2021).
